Key:
Assay in all cases: Kinase panel profiling at 1 µmol/L (mobility shift assay, Carna)
[1] = target: T1, FRK (Homo sapiens, UniProt P42685); format: biochemical; details: 1 µmol/L of BTK inhibitor
T1 construct: purchased Carna Biosciences

[2] = target: T2, KIT (Homo sapiens, UniProt P10721); format: biochemical; details: 1 µmol/L of BTK inhibitor
T2 construct: purchased Carna Biosciences

[3] = target: T3, AurA/TPX2 (Homo sapiens, UniProt O14965); format: biochemical; details: 1 µmol/L of BTK inhibitor
T3 construct: purchased Carna Biosciences
T3 sequence (O14965 1-403): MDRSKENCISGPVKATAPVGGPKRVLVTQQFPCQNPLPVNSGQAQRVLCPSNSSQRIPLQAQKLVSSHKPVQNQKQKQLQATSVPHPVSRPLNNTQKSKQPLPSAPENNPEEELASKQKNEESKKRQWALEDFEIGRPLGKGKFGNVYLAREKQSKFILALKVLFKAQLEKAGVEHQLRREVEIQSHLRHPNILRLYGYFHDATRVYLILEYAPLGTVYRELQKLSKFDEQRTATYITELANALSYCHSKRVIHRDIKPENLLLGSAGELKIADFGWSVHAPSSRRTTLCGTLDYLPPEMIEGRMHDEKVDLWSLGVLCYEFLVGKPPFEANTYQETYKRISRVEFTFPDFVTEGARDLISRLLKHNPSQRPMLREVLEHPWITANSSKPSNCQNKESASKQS
T3 sequence (Q9ULW0 1-43 partner limits assumed): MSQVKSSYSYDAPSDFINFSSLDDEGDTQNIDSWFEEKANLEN

[4] = target: T4, CLK1 (Homo sapiens, UniProt P49759); format: biochemical; details: 1 µmol/L of BTK inhibitor
T4 construct: purchased Carna Biosciences

[5] = target: T5, DCAMKL2 (Homo sapiens, UniProt Q8N568); format: biochemical; details: 1 µmol/L of BTK inhibitor
T5 construct: purchased Carna Biosciences
T5 sequence (Q8N568 1-766): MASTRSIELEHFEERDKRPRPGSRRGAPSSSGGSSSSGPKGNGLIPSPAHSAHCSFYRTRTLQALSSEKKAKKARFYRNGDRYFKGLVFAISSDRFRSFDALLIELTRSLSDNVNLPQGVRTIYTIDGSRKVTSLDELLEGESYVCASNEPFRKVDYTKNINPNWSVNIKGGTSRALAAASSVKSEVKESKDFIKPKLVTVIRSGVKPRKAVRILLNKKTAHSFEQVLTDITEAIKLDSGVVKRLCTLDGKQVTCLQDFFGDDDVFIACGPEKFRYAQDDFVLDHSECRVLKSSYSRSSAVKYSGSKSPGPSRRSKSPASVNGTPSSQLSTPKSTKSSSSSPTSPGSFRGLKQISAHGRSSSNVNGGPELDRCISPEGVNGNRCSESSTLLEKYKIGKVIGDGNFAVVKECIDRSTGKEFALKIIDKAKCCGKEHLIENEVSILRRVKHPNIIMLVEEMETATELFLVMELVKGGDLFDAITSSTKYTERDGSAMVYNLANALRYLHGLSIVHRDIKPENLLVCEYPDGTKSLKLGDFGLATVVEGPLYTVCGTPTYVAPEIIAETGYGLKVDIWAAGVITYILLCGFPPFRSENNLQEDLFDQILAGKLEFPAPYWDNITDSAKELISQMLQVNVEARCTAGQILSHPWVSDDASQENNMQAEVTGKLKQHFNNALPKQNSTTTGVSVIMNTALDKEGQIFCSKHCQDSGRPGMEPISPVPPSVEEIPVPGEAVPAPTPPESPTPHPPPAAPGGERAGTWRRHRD

[6] = target: T6, MAP4K2 (Homo sapiens, UniProt Q12851); format: biochemical; details: 1 µmol/L of BTK inhibitor
T6 construct: purchased Carna Biosciences
T6 sequence (Q12851 1-820): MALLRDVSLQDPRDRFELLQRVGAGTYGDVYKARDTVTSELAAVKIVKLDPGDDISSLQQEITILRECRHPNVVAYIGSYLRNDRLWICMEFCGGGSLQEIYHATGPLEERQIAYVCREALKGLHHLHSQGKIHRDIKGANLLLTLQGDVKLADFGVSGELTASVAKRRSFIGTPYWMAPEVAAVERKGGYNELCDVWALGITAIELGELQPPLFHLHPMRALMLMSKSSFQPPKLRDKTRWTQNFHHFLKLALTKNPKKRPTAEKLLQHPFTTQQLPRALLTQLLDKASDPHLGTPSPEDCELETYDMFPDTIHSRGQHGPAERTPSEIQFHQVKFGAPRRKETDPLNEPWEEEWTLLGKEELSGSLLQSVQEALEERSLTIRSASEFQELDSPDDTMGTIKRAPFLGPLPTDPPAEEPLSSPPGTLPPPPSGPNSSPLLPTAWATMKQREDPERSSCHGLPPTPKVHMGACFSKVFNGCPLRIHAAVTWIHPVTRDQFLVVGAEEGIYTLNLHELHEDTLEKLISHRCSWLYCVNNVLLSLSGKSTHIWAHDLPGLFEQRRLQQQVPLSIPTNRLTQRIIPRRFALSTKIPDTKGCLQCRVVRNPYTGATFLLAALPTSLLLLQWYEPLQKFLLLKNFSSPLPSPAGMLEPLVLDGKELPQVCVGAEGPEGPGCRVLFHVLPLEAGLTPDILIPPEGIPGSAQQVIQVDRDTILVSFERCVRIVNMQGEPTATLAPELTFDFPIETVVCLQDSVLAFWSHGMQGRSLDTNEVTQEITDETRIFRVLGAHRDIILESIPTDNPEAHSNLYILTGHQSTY

[7] = target: CSK (Homo sapiens, UniProt P41240); details: for Percentage inhibition of kinase enzyme activity: CSK, 1 µmol/L of BTK inhibitor
Chain of CSK (P41240 whole entry): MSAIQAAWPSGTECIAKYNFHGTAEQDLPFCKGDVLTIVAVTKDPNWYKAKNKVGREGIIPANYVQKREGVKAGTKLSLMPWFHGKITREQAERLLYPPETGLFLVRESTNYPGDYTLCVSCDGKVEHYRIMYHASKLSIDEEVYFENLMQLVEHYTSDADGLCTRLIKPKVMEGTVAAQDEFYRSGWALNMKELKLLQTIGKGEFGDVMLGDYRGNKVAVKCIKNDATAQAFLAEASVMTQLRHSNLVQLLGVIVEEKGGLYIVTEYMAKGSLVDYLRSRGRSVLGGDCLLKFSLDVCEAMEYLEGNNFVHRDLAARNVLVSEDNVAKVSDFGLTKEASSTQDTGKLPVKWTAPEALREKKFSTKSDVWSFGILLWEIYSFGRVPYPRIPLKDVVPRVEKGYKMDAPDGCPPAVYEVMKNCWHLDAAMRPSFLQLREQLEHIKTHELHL

T2 sequence (P10721 26-976): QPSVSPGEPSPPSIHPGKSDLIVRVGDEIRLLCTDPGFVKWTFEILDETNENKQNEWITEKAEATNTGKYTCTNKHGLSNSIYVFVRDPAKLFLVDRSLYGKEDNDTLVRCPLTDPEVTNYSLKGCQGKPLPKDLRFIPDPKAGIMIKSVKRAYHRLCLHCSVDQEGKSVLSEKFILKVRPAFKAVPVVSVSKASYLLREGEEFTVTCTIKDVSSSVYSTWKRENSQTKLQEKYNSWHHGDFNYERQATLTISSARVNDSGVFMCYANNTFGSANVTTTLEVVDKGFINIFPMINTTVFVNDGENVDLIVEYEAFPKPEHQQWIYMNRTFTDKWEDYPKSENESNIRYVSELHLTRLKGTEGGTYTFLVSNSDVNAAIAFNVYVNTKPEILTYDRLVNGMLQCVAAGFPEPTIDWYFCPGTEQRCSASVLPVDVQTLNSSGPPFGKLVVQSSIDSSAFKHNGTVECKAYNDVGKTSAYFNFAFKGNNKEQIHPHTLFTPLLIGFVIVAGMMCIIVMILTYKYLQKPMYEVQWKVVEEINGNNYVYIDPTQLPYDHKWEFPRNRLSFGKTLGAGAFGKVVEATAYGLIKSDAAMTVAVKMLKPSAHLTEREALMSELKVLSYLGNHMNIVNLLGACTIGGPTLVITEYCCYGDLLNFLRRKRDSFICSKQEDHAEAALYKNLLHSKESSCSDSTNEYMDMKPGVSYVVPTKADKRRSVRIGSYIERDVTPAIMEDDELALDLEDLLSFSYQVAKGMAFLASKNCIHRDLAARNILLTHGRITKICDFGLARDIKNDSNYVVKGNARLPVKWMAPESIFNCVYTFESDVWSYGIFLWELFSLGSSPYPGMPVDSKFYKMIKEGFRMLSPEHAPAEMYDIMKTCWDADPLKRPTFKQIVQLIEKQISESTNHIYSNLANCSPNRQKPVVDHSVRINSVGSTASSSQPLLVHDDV
T1 sequence (P42685 whole entry): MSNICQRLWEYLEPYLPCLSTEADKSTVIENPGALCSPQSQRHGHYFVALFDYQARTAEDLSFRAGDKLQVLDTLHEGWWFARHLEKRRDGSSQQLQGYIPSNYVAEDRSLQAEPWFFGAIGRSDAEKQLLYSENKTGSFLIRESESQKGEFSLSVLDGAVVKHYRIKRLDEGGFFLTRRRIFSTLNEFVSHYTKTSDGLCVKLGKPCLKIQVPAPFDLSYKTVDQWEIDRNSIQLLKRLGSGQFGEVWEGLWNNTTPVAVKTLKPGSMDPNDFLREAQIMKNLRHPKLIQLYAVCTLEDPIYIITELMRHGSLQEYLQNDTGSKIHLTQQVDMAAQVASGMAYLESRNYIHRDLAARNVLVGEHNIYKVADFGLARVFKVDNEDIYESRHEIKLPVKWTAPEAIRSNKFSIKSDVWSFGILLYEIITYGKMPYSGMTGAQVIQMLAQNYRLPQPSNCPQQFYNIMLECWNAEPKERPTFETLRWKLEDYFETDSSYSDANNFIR
T4 sequence (P49759 whole entry): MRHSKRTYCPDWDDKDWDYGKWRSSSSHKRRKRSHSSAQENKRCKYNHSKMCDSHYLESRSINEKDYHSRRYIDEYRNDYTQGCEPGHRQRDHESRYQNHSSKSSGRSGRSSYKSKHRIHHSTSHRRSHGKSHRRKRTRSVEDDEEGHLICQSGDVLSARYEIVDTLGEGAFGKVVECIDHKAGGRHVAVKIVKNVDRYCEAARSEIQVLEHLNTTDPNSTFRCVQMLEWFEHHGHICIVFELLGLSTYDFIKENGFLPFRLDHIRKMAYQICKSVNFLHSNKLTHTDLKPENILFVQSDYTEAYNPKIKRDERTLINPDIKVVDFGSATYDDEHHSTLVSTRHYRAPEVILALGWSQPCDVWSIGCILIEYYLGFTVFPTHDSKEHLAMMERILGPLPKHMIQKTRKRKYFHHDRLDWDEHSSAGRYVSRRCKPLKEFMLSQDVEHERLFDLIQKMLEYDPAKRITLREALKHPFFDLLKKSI

**Q.** `CC#CC(=O)N1CCC[C@H]1c1nc(-c2ccc(C(=O)Nc3ccccn3)cc2)c2c(N)nccn12` [acalabrutinib] was tested. Which “Percentage inhibition of kinase enzyme activity” value (“Percentage inhibition” for short) [1] did it give?
**A.** 47.48%

**Q.** What about the “Percentage inhibition” value [2] of the same compound?
**A.** 2.89%

**Q.** And the “Percentage inhibition” value [3]?
**A.** -4.71%

**Q.** And the “Percentage inhibition” value [4]?
**A.** -8.11%

**Q.** What about the “Percentage inhibition” value [5] of the same compound?
**A.** 4.63%

**Q.** And the “Percentage inhibition” value [6]?
**A.** -11.21%

**Q.** And the “Percentage inhibition” value [7]?
**A.** 6.97%

**Q.** For `C=CC(=O)N1CCC[C@@H](n2nc(-c3ccc(Oc4ccccc4)cc3)c3c(N)ncnc32)C1` [ibrutinib], which “Percentage inhibition” value [1] is on record?
**A.** 99.53%

**Q.** What about the “Percentage inhibition” value [2] of the same compound?
**A.** -4.53%

**Q.** What about the “Percentage inhibition” value [3] of the same compound?
**A.** -2.33%

**Q.** And the “Percentage inhibition” value [5]?
**A.** -9.45%

**Q.** What about the “Percentage inhibition” value [6] of the same compound?
**A.** -4.43%

**Q.** What does the source list for `O=C(c1ccc(Oc2ccccc2)cc1Cl)c1c[nH]c2ncnc(N[C@@H]3CC[C@@H](CO)OC3)c12` [nemtabrutinib]?
**A.** Percentage inhibition of kinase enzyme activity [1]: 98.79%; Percentage inhibition of kinase enzyme activity [2]: 78.81%; Percentage inhibition of kinase enzyme activity [3]: 4.98%; Percentage inhibition of kinase enzyme activity [4]: 0.63%; Percentage inhibition of kinase enzyme activity [5]: -1.82%; Percentage inhibition of kinase enzyme activity [6]: 78.03%; Percentage inhibition of kinase enzyme activity [7]: 98.66%

**Q.** Which results are given for `COc1ccc(F)cc1C(=O)NCc1ccc(-c2nn([C@@H](C)C(F)(F)F)c(N)c2C(N)=O)cc1` [pirtobrutinib]?
**A.** Percentage inhibition of kinase enzyme activity [1]: 13.63%; Percentage inhibition of kinase enzyme activity [2]: -5.95%; Percentage inhibition of kinase enzyme activity [3]: 1.13%; Percentage inhibition of kinase enzyme activity [4]: -2.61%; Percentage inhibition of kinase enzyme activity [5]: 0.08%; Percentage inhibition of kinase enzyme activity [6]: 3.56%; Percentage inhibition of kinase enzyme activity [7]: 79.14%; inhibition at 1 µM ([7]; read-out: Inhibition of CSK): > 75%

**Q.** Which “Percentage inhibition” value [1] does the source give for `C=CC(=O)N1CCC([C@@H]2CCNc3c(C(N)=O)c(-c4ccc(Oc5ccccc5)cc4)nn32)CC1` [zanubrutinib] here?
**A.** 31.32%

**Q.** And the “Percentage inhibition” value [2]?
**A.** -2.78%
